From PubChem BioAssay AID256 (DTP/NCI, 2004)
Where “and” joins values, the source holds several entries; their conditions need not be identical. Identical values can stand only once. Toxic doses and inconclusive results are not listed. Rule for the calls: active = survival T/C of 150% or more; inactive = T/C below 125% in these data.

Test system: CD2F1 mice, L1210 leukemia ip, survival T/C
Experiment: NCI In Vivo Anticancer Drug Screen. Data for tumor model L1210 Leukemia (intraperitoneal) in CD2F1 (CDF1) mice
Conditions: endpoint: mean survival time, higher = longer survival
In short: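 In this screen, transplantable tumors were grown in mice given either the compound or its vehicle. Results were expressed as the treated measurement relative to the control measurement.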

[1] = dose: 100.0 mg/kg/injection, schedule: Q01DX009 (ip), vehicle: saline with Tween-80
[2] = dose: 100.0 mg/kg/injection, schedule: Q04DX003 (ip), vehicle: saline with Tween-80
[3] = dose: 200.0 mg/kg/injection, schedule: Q01DX009 (ip), vehicle: saline with Tween-80
[4] = dose: 200.0 mg/kg/injection, schedule: Q04DX003 (ip), vehicle: saline with Tween-80
[5] = dose: 400.0 mg/kg/injection, schedule: Q01DX009 (ip), vehicle: saline with Tween-80
[6] = dose: 400.0 mg/kg/injection, schedule: Q04DX003 (ip), vehicle: saline with Tween-80
[7] = dose: 50.0 mg/kg/injection, schedule: Q04DX002 (ip), vehicle: saline
[8] = dose: 100.0 mg/kg/injection, schedule: Q04DX002 (ip), vehicle: saline

Measured: T/C

O=C(O)/C=C/c1ccco1
inactive: [1] 95 % of control | [2] 101 % of control | [3] 94 % of control | [4] 98 % of control | [5] 96 % of control | [6] 108 % of control

NC(CS)=NCCc1nc2ccccc2[nH]1
inactive: dose: 6.25 mg/kg/injection, schedule: Q04DX002 (ip), vehicle: saline 96 % of control | dose: 12.5 mg/kg/injection, schedule: Q04DX002 (ip), vehicle: saline 93 % of control | dose: 25.0 mg/kg/injection, schedule: Q04DX002 (ip), vehicle: saline 96 % of control and 104 % of control | [7] 106 % of control

CCCNC1=C(C)C(=O)C2=C(C1=O)[C@@H](COC(N)=O)[C@]1(O)[C@H]3[C@@H](CN21)N3C (stereo partly drawn)
inactive: dose: 1.5 mg/kg/injection, schedule: Q01DX001 (ip), vehicle: water 98 % of control and 103 % of control | dose: 3.0 mg/kg/injection, schedule: Q01DX001 (ip), vehicle: water 97 % of control and 103 % of control | dose: 6.0 mg/kg/injection, schedule: Q01DX001 (ip), vehicle: water 98 % of control and 101 % of control | dose: 12.0 mg/kg/injection, schedule: Q01DX001 (ip), vehicle: water 98 % of control and 103 % of control | dose: 24.0 mg/kg/injection, schedule: Q01DX001 (ip), vehicle: water 97 % of control and 101 % of control | dose: 50.0 mg/kg/injection, schedule: Q01DX001 (ip), vehicle: distilled water + Tween-80 100 % of control | dose: 100.0 mg/kg/injection, schedule: Q01DX001 (ip), vehicle: distilled water + Tween-80 108 % of control

S=C(NCCSC(=S)Nc1ccccc1)Nc1ccccc1
inactive: [1] 91 % of control | [3] 89 % of control | [5] 106 % of control

O=Cc1cc(=O)n2c3c(cccc13)CCC2
inactive: dose: 100.0 mg/kg/injection, schedule: Q04DX003 (ip), vehicle: saline 98 % of control | dose: 200.0 mg/kg/injection, schedule: Q04DX003 (ip), vehicle: saline 98 % of control

Cc1[nH]c2ccccc2c1C(=O)C(N)=O
inactive: [1] 100 % of control | [2] 92 % of control | [3] 97 % of control | [4] 86 % of control | [5] 95 % of control | [6] 92 % of control

Cn1c(=O)c2c(nc(Br)n2CC(=O)CF)n(C)c1=O
inactive: dose: 12.5 mg/kg/injection, schedule: Q01DX005 (ip), vehicle: distilled water + Tween-80 97 % of control and 100 % of control and 104 % of control | dose: 25.0 mg/kg/injection, schedule: Q01DX005 (ip), vehicle: distilled water + Tween-80 97 % of control (2×) and 105 % of control | dose: 50.0 mg/kg/injection, schedule: Q01DX005 (ip), vehicle: distilled water + Tween-80 94 % of control and 95 % of control | dose: 100.0 mg/kg/injection, schedule: Q01DX005 (ip), vehicle: distilled water + Tween-80 97 % of control (2×) and 112 % of control | dose: 200.0 mg/kg/injection, schedule: Q01DX005 (ip), vehicle: distilled water + Tween-80 93 % of control and 95 % of control

CCCCCCC(O)C/C=C\CCCCCCCC(=O)O (stereo not drawn)
inactive: [7] 86 % of control | [8] 90 % of control

CC1CCC(=O)O1 (stereo not drawn)
inactive: [8] 98 % of control | dose: 200.0 mg/kg/injection, schedule: Q04DX002 (ip), vehicle: saline 98 % of control | dose: 400.0 mg/kg/injection, schedule: Q04DX002 (ip), vehicle: saline 98 % of control

COc1cc(OC)c(NC(=O)Oc2ccc(Br)cc2Br)cc1Cl
inactive: dose: 12.5 mg/kg/injection, schedule: Q01DX009 (ip), vehicle: saline with Tween-80 92 % of control | dose: 25.0 mg/kg/injection, schedule: Q01DX009 (ip), vehicle: saline with Tween-80 100 % of control | dose: 50.0 mg/kg/injection, schedule: Q01DX009 (ip), vehicle: saline with Tween-80 94 % of control and 107 % of control | [1] 94 % of control | [3] 90 % of control

N#CC(/C=C/c1ccccc1)Nc1ccccc1CO (stereo not drawn)
inactive: [2] 97 % of control | [4] 105 % of control | [6] 117 % of control

O=C(Nc1ccc(NC(=O)c2ccccc2)c2ccccc12)c1ccccc1
inactive: [2] 92 % of control | [6] 92 % of control
